Assay results taken from patent US11787780B2 (CORCEPT THERAPEUTICS INCORPORATED, priority 2020, dated 2023).

biological target: glucocorticoid receptor (GR) recombinant ligand binding domain (LBD) (Homo sapiens (Human), UniProt P04150); test: GR binding fluorescence polarisation (FP) assay; details: displacement of fluorescently tagged ligand
Description: Binding of test compounds to the glucocorticoid receptor (GR) is determined using a fluorescence polarisation (FP) assay utilising a recombinant ligand binding domain (LBD) of GR. The test compounds are assessed by their ability to displace a fluorescently tagged ligand and detection of the resulting decrease in fluorescence polarisation.

Sequence of glucocorticoid receptor (GR) recombinant ligand binding domain (LBD) (P04150 524-758): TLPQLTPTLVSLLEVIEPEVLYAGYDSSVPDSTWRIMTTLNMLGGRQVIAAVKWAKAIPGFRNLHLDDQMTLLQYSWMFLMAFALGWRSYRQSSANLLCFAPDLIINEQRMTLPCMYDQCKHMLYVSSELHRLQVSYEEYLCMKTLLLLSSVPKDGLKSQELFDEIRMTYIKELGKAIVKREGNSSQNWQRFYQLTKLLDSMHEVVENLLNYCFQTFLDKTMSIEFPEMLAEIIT

Point of comparison: `CCCn1cc(S(=O)(=O)N2CCN(c3cc4cnn(-c5ccc(F)c(F)c5)c4cc3C)C[C@H]2C)cn1` [Example 76], IC50 83 nM. Against it:
- C[C@@H]1CN(C(=O)c2ccccc2)CCN1c1ccc2c(cnn2-c2ccc(F)cc2)c1 [Example 2, (R)-(4-(1-(4-fluorophenyl)-1H-indazol-5-yl)-3-methylpiperazin-1-yl)(phenyl)methanone] — 23-fold higher, 1940 nM
- CCCn1cc(S(=O)(=O)N2CC=C(c3cc4cnn(-c5ccc(F)cc5)c4cc3C)CC2)cn1 [Example 139] — 2.6-fold higher, 218 nM
- C[C@@H]1CN(S(C)(=O)=O)[C@H](C)CN1c1ccc2c(cnn2-c2ccc(F)cc2)c1 [Example 62] — 5.2-fold higher, 431 nM
- Cc1cc2c(cnn2-c2ccc(F)cc2)cc1N1CC[C@H](N(C)S(C)(=O)=O)C1 [Example 112] — 3-fold higher, 249 nM
- CCCn1cc(S(=O)(=O)N2CCC(c3ccc4c(cnn4-c4ccc(F)cc4)c3)CC2)cn1 [Example 135] — 5.7-fold higher, 473 nM
- CS(=O)(=O)N[C@H]1CCN(c2ccc3c(cnn3-c3ccc(F)cc3)c2)C1 [Example 105] — 3.9-fold higher, 320 nM
- Cn1cc(S(=O)(=O)C2CCN(c3ccc4c(cnn4-c4ccc(F)cc4)c3)CC2)cn1 [Example 33, 1-(4-fluorophenyl)-5-(4-((1-methyl-1H-pyrazol-4-yl)sulfonyl)piperidin-1-yl)-1H-indazole] — within 1.5-fold, 67 nM
- C[C@H]1CN(S(=O)(=O)c2cnn(C)c2)CCN1c1ccc2c(cnn2-c2ccc(F)cc2)c1 [Example 36] — 43-fold higher, 3550 nM
- Cc1cc2c(cnn2-c2ccc(F)cc2)cc1N1CCC2(CCCN2S(C)(=O)=O)CC1 [Example 88] — 87-fold higher, 7230 nM
- O=S(=O)(c1cnn(CC2CC2)c1)N1CCN(c2ccc3c(cnn3-c3ccc(F)cc3)c2)C[C@H]1CO [Example 14, (S)-(1-((1-(cyclopropylmethyl)-1H-pyrazol-4-yl)sulfonyl)-4-(1-(4-fluorophenyl)-1H-indazol-5-yl)piperazin-2-yl)methanol] — 4.3-fold higher, 357 nM
- COC(=O)C1CN(c2ccc3c(cnn3-c3ccc(F)cc3)c2)CCN1S(=O)(=O)c1cnn(CC2CC2)c1 (stereo not shown) [Example 52] — 8.4-fold higher, 700 nM
- CS(=O)(=O)N1CC2CC(C1)N2c1ccc2c(cnn2-c2ccc(F)cc2)c1 [Example 48] — 49-fold higher, 4050 nM
- CCCn1cc(S(=O)(=O)N2C3CCC2CN(c2cc4cnn(-c5ccc(F)cc5)c4cc2C)C3)cn1 [Example 83] — 6.2-fold higher, 515 nM
- CCCn1cc(S(=O)(=O)N2CC[C@@H](c3cc4cnn(-c5ccc(F)cc5)c4cc3C)C[C@H]2C)cn1 [Example 12, 1-(4-fluorophenyl)-6-methyl-5-((2R,4R)-2-methyl-1-((1-propyl-1H-pyrazol-4-yl)sulfonyl)piperidin-4-yl)-1H-indazole] — 2.8-fold higher, 236 nM
- Cc1cc2c(cnn2-c2ccc(F)cc2)cc1C1CCN(S(C)(=O)=O)CC1 [Example 136] — within 1.5-fold, 102 nM
- Cc1cc2c(cnn2-c2ccc(F)cc2)cc1N1CCC2(CCN(S(C)(=O)=O)CC2)C1 [Example 95] — 7.4-fold higher, 612 nM
- Cc1cc2c(cnn2-c2ccc(F)cc2)cc1N1CC[C@@H](NS(=O)(=O)c2cnn(C)c2)C1 [Example 110] — 1.8-fold lower, 46 nM
- Cc1cc2c(cnn2-c2ccc(F)cc2)cc1N1CCC2(CCN(S(=O)(=O)c3cnn(C)c3)CC2)C1 [Example 96] — 31-fold higher, 2560 nM
- CCCn1cc(S(=O)(=O)N2CCN(c3ccc4c(cnn4-c4ccc(F)cc4)c3)CC2(C)C)cn1 [Example 46] — 14-fold higher, 1130 nM
- CCCNS(=O)(=O)N1CCN(c2ccc3c(cnn3-c3ccc(F)cc3)c2)C[C@H]1C [Example 63] — 2.6-fold higher, 215 nM
- Cc1cc2c(cnn2-c2ccc(F)cc2)cc1N1CC[C@H](NS(=O)(=O)c2cnn(C)c2)C1 [Example 111] — 28-fold lower, 3 nM
- CCCn1cc(S(=O)(=O)N2CCCC23CCN(c2cc4cnn(-c5ccc(F)cc5)c4cc2C)CC3)cn1 [Example 89] — 5.2-fold higher, 434 nM

tested on: induction of TAT by dexamethasone in HepG2 cells; test: Hep G2 TAT assay (inhibition of dexamethasone-induced TAT); type: cell-based, human; details: challenge of 100 nM dexamethasone, IC50 converted to Ki by Cheng and Prusoff equation
Description: Glucocorticoid mediated activation of TAT occurs by transactivation of glucocorticoid response elements in the TAT promoter by glucocorticoid receptor-agonist complex. The following protocol describes an assay for measuring induction of TAT by dexamethasone in HepG2 cells (a human liver hepatocellular carcinoma cell line; ECACC, UK).
TAT activity was measured as outlined in the literature by A. Ah et al., J. Med. Chem., 2004, 47, 2441-2452.
HepG2 cells were cultured using MEME media supplemented with 10% (v/v) foetal bovine serum; 2 mM L-glutamine and 1% (v/v) NEAA at 37° C., 5%/95% (v/v) CO2/air. The HepG2 cells were counted and adjusted to yield a density of 0.125×10^6 cells/ml in RPMI 1640 without phenol red, 10% (v/v) charcoal stripped FBS, 2 mM L-glutamine and seeded at 25,000 cells/well in 200 μl into 96 well, sterile, tissue culture micro titre plates, and incubated at 37° C., 5% CO2 for 24 hours
Growth media was removed and replaced with assay media {RPMI 1640 without phenol red, 2 mM L-glutamine+10 μM forskolin}. Test compounds were screened against a challenge of 100 nM dexamethasone. Compounds were serially half log diluted in 100% (v/v) dimethylsulphoxide from a 10 mM stock.
Test compounds were pre-incubated with cells in micro-titre plates for 30 minutes at 37° C., 5/95 (v/v) CO2/air, before the addition of 100 nM dexamethasone and then subsequently for 20 hours to allow optimal TAT induction.
HepG2 cells were then lysed with 30 μl of cell lysis buffer containing a protease inhibitor cocktail for 15 minutes at 4° C. […] After 2 hours incubation at 37° C. the reaction was terminated by the addition of 15 μl of 10M aqueous potassium hydroxide solution, and the plates incubated for a further 30 minutes at 37° C. The TAT activity product was measured by absorbance at λ 340 nm.
[compound] and fitting the data to a 4 parameter logistic equation. IC50 values were converted to Ki (equilibrium dissociation constant) using the Cheng and Prusoff equation, assuming the antagonists were competitive inhibitors with respect to dexamethasone.

Point of comparison: `CCCn1cc(S(=O)(=O)N2C[C@H]3CN(c4cc5cnn(-c6ccc(F)cc6)c5cc4C)C[C@H]3C2)cn1` [Example 93], Ki 216 nM. Against it:
- Cc1cc2c(cnn2-c2ccc(F)cc2)cc1C1(CC#Cc2ccccc2)CCN(S(=O)(=O)c2cnn(C)c2)C1 (stereo not shown) [Example 211, 1-(4-fluorophenyl)-6-methyl-5-(1-((1-methyl-1H-pyrazol-4-yl)sulfonyl)-3-(3-phenylprop-2-yn-1-yl)pyrrolidin-3-yl)-1H-indazole] — 4.6-fold lower, 47 nM
- COc1cc2c(cnn2-c2ccc(F)cc2)cc1C1(Cc2ccc(F)cc2)CCN(S(=O)(=O)C2CC2)C1 (stereo not shown) [Example 220, 5-(1-(cyclopropylsulfonyl)-3-(4-fluorobenzyl)pyrrolidin-3-yl)-1-(4-fluorophenyl)-6-methoxy-1H-indazole] — 9-fold lower, 24 nM
- CCCn1cc(S(=O)(=O)N(C)[C@H]2CCN(c3cc4cnn(-c5ccc(F)cc5)c4cc3OC)C2)cn1 [Example 118] — 7.6-fold higher, 1640 nM
- Cc1cc2c(cnn2-c2ccc(F)cc2)cc1C1(Cc2ccccc2)CCN(C(=O)c2cc(CO)ccn2)C1 (stereo not shown) [Example 200, (3-benzyl-3-(1-(4-fluorophenyl)-6-methyl-1H-indazol-5-yl)pyrrolidin-1-yl)(4-(hydroxymethyl)pyridin-2-yl)methanone] — 3.7-fold lower, 59 nM
- CCCn1cc(N(C)S(=O)(=O)C2CCN(c3cc4cnn(-c5ccc(F)cc5)c4cc3C)C2)cn1 (stereo not shown) [Example 30, 1-(1-(4-fluorophenyl)-6-methyl-1H-indazol-5-yl)-N-methyl-N-(1-propyl-1H-pyrazol-4-yl)pyrrolidine-3-sulfonamide] — within 1.5-fold, 206 nM
- Cc1cc2c(cnn2-c2ccc(F)cc2)cc1C1(Cc2ccccc2)CCN(C(=O)c2cncnc2)C1 (stereo not shown) [Example 196, (3-benzyl-3-(1-(4-fluorophenyl)-6-methyl-1H-indazol-5-yl)pyrrolidin-1-yl)(pyrimidin-5-yl)methanone] — 2.7-fold lower, 79 nM
- COc1ccccc1-c1noc(CCC(=O)N2CCC(Cc3ccccc3)(c3cc4cnn(-c5ccc(F)cc5)c4cc3C)C2)n1 (stereo not shown) [Example 201, 1-(3-benzyl-3-(1-(4-fluorophenyl)-6-methyl-1H-indazol-5-yl)pyrrolidin-1-yl)-3-(3-(2-methoxyphenyl)-1,2,4-oxadiazol-5-yl)propan-1-one] — 4.5-fold lower, 48 nM
- COCCn1cc(S(=O)(=O)N2CCC(Cc3ccccc3)(c3cc4cnn(-c5ccc(=O)n(C)c5)c4cc3C)C2)cn1 (stereo not shown) [Example 281, 5-(5-(3-benzyl-1-((1-(2-methoxyethyl)-1H-pyrazol-4-yl)sulfonyl)pyrrolidin-3-yl)-6-methyl-1H-indazol-1-yl)-1-methylpyridin-2(1H)-one] — 2.9-fold lower, 75 nM
- Cc1cc2c(cnn2-c2ccc(F)cc2)cc1C1(COc2ccccc2)CCN(S(=O)(=O)c2cnn(C)c2)C1 (stereo not shown) [Example 344, 1-(4-fluorophenyl)-6-methyl-5-(1-((1-methyl-1H-pyrazol-4-yl)sulfonyl)-3-(phenoxymethyl)pyrrolidin-3-yl)-1H-indazole] — 2.2-fold lower, 97 nM
- COc1cc2c(cnn2-c2ccc(F)cc2)cc1C1(Cc2ccc(F)cc2)CCN(S(=O)(=O)c2cn(C)cn2)C1 (stereo not shown) [Example 216, 5-(3-(4-fluorobenzyl)-1-((1-methyl-1H-imidazol-4-yl)sulfonyl)pyrrolidin-3-yl)-1-(4-fluorophenyl)-6-methoxy-1H-indazole] — 4.1-fold lower, 53 nM
- Cc1cc2c(cnn2-c2ccc(F)cc2)cc1C1(Cc2nccs2)CCN(S(=O)(=O)c2cnn(C)c2)C1 (stereo not shown) [Example 188] — within 1.5-fold, 173 nM
- Cc1cc2c(cnn2-c2ccc(=O)n(C)c2)cc1C1(Cc2ccccc2)CCN(S(=O)(=O)c2cnn(C3CCC3)c2)C1 (stereo not shown) [Example 279, 5-(5-(3-benzyl-1-((1-cyclobutyl-1H-pyrazol-4-yl)sulfonyl)pyrrolidin-3-yl)-6-methyl-1H-indazol-1-yl)-1-methylpyridin-2(1H)-one] — 4.3-fold lower, 50 nM
- CS(=O)(=O)N1CCC(Cc2ccccc2)(c2ccc3c(cnn3-c3ccc(F)cc3)c2)C1 (stereo not shown) [Example 157] — within 1.5-fold, 257 nM
- Cc1cc2c(cnn2-c2ccc(F)cc2)cc1C1(CCc2ccccc2)CCN(S(=O)(=O)c2cnn(C)c2)C1 (stereo not shown) [Example 343, 1-(4-fluorophenyl)-6-methyl-5-(1-((1-methyl-1H-pyrazol-4-yl)sulfonyl)-3-phenethylpyrrolidin-3-yl)-1H-indazole] — 1.8-fold lower, 120 nM
- Cc1cc2c(cnn2-c2cccnc2)cc1C1(Cc2ccccc2)CCN(S(=O)(=O)c2cnn(C)n2)C1 (stereo not shown) [Example 238, 5-(3-benzyl-1-((2-methyl-2H-1,2,3-triazol-4-yl)sulfonyl)pyrrolidin-3-yl)-6-methyl-1-(pyridin-3-yl)-1H-indazole] — 3.4-fold lower, 64 nM
- Cc1cc2c(cnn2-c2cccc(C#N)c2)cc1C1(Cc2ccccc2)CCN(S(=O)(=O)c2cnn(C)n2)C1 (stereo not shown) [Example 241, 3-(5-(3-benzyl-1-((2-methyl-2H-1,2,3-triazol-4-yl)sulfonyl)pyrrolidin-3-yl)-6-methyl-1H-indazol-1-yl)benzonitrile] — 4.9-fold lower, 44 nM
